Data taken from patent US5378838A, “Benzodiazepine cholecystokinin antagonists” (Merck & Co., Inc., priority 1993, dated 1995).
Read-outs that look alike come from different tables or passages of the source.

Key:
[1] = target: T1, CCK receptor (pancreas) (Rattus norvegicus, UniProt P30551); experiment: CCK Receptor Binding (Pancreas), inhibition of 125I-CCK-8 binding; parameters: species or system rat (male Sprague-Dawley)
T1 construct: The whole pancreas was dissected free of fat tissue and was homogenized; from tissue; host or cells: whole pancreas membranes of male Sprague-Dawley rats
T1 sequence (P30551 1-444): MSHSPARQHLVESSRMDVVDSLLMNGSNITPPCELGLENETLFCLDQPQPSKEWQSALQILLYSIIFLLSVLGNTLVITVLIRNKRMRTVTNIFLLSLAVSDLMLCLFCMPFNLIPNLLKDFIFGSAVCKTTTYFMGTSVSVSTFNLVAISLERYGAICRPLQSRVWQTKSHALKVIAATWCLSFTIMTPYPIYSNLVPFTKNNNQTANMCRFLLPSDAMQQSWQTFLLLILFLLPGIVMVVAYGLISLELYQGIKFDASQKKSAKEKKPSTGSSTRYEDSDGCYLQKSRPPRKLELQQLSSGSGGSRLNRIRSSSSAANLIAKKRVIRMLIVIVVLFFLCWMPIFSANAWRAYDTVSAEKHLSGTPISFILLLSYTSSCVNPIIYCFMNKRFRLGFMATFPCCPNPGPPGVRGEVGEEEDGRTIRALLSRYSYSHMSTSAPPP
Procedure: 1. CCK Receptor Binding (Pancreas)
Male Sprague-Dawley rats (150-200 g) were sacrificed by decapitation. The whole pancreas was dissected free of fat tissue and was homogenized in 25 volumes of ice-cold 10 mM Hepes buffer with 0.1% soya bean trypsin inhibitor (pH 7.4 at 25° C.) with a Kinematica Polytron. The homogenates were centrifuged at 47,800 g for 10 min. Pellets were resuspended in 10 volumes of binding assay buffer (20 mM Hepes, 1 mM EGTA, 5 mM MgCl2, 150 mM NaCl, bacitracin 0.25 mg/ml, soya bean trypsin inhibitor 0.1 mg/ml, and bovine serum albumin 2 mg/ml, pH 6.5 at 25° C.) using a teflon homogenizer, 15 strokes at 500 rpm. The homogenate was further diluted in binding assay buffer to give a final concentration of 0.5 mg original wet weight/l ml buffer. […] All assays were run in duplicate. The reaction mixtures were incubated at 25° C. for 2 hours and the reaction terminated by rapid filtration (Brandell 24 well cell harvester) over Whatman GF/C filters, washing 3×4 mls with ice-cold 100 mM NaCl. The radioactivity on the filters was counted with a LKB gamma counter.
Drug displacement studies were performed with at least 10 concentrations of compounds of formula 1 and the IC50 values were determined by regression analysis.

[2] = target: T2, CCK receptor (brain) (Cavia porcellus, UniProt H0VZC5); experiment: CCK Receptor Binding (Brain), inhibition of 125I-CCK-8 binding; parameters: species or system guinea pig (male Hartley); settings: guinea pig cortex, 50 pM 125I-CCK-8, pH 6.5, 25° C., 2 hours
T2 construct: the cortex was removed and homogenized in 25 mL ice-cold 0.32M sucrose; from tissue; host or cells: cortex P2 membranes of male Hartley guinea pigs
T2 sequence (H0VZC5 1-426): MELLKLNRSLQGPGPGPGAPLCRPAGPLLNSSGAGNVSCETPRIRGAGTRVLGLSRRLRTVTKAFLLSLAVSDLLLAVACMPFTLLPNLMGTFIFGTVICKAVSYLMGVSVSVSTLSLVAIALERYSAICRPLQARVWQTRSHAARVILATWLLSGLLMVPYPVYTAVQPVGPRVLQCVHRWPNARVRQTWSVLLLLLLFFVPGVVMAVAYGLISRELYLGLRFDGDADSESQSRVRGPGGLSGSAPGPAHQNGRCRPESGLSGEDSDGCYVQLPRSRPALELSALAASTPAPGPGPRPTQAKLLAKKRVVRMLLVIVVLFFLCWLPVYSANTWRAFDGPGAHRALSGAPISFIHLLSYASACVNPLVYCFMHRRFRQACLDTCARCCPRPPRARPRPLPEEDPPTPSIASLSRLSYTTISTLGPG
Procedure: CCK-8 sulphated was radiolabelled and the binding was performed according to the description for the pancreas method with minor modifications.
Male Hartley guinea pigs (300-500g) were sacrificed by decapitation and the cortex was removed and homogenized in 25 mL ice-cold 0.32M sucrose. The homogenates were centrifuged at 1000 g for 10 minutes and the resulting supernatant was recentrifuged at 20,000 g for 20 minutes. […] All assays were run in duplicate. The reaction mixtures were incubated at 25° C. for 2 hours and then the reaction was terminated on Whatman GF/C filters by rapid filtration (Brandell 24 well cell Harvester) with 3×5 ml washes of cold 100 mM NaCl. The radioactivity on the filters was then counted with a LKB gamma counter.
Drug displacement studies were performed with at least 10 concentrations of compounds of formula 1 and the IC50 values were determined by regression analysis. IC50 refers to the concentration of the compound required to inhibit 50% of specific binding of ^125 I-CCK-8.

[3] = rat pancreas, 50 pM 125I-CCK-8, pH 6.5, 25° C., 2 hours, read-out: IC50 125I-CCK Pancreas
[4] = read-out: IC50 125I-CCK Pancreas, rat pancreas, 50 pM 125I-CCK-8, pH 6.5, 25° C., 2 hours

| SMILES | IC50 [1] [nM] | IC50 [2] [nM] | IC50 [1, 3] [nM] | IC50 [1, 4] [nM] |
| --- | --- | --- | --- | --- |
| COC(=O)[C@@H](N)c1cccc(NC(=O)N[C@@H]2N=C(c3ccccc3)c3ccccc3N(C)C2=O)c1 [Example 8, N-{(3R)-1,3-Dihydro-1-methyl-2-oxo-5-phenyl-1H-1,4-benzodiazepin-3-yl}-N'-{[3-((1S )-amino-1-methoxycarbonyl)methylphenyl]-urea}] | > 3000 | 958 | – | – |
| CN1C(=O)[C@H](NC(=O)Nc2cccc(C(N)CC(=O)O)c2)N=C(c2ccccc2)c2ccccc21 (stereo partly drawn) [Example 13, N-{(3R)-1,3-Dihydro-1-methyl-2-oxo-5-phenyl-1H-1,4-benzodiazepin-3-yl}-N'-{[3-((1R,S)-amino-2-carboxy)ethylphenyl]-urea}] | > 3000 | > 3000 | – | – |
| COC(=O)[C@H](Cc1cccc(NC(=O)N[C@@H]2N=C(C3CCCCC3)c3ccccc3N(C)C2=O)c1)NC(=O)OC(C)(C)C [Example 4, N-{(3R)-1,3-Dihydro-1-methyl-2-oxo-5-cyclohexyl-1H-1,4-benzodiazepin-3-yl}-N'-{[3-((2S)-tert-butyloxycarbonylamino-2-methoxycarbonyl)ethylphenyl]-urea}] | – | 3.9 | 961 | – |
| COC(=O)C1(NC(=O)OC(C)(C)C)CCc2ccc(NC(=O)N[C@@H]3N=C(c4ccccc4)c4ccccc4N(C)C3=O)cc2C1 (stereo partly drawn) [Example 15, N-{(3R)-1,3-Dihydro-1-methyl-2-oxo-5-phenyl-1H-1,4-benzodiazepin-3-yl}-N'-{[7-(methyl-2-(R,S)-tert-butyloxycarbonylamino-1,2,3,4-tetrahydro-2-naphthoate)]-urea}] | – | 126 | – | > 3000 |
| CN1C(=O)[C@H](NC(=O)Nc2cccc3c2CCC(N)(C(=O)O)C3)N=C(c2ccccc2)c2ccccc21 (stereo partly drawn) [Example 23, N-{(3R)-1,3-Dihydro-1-methyl-2-oxo-5-phenyl-1H-1,4-benzodiazepin-3-yl}-N'-{[5-(2-(R,S)-amino-1,2,3,4-tetrahydro-2-naphthoic acid)]-urea}] | > 3000 | > 3000 | – | – |
| COC(=O)[C@@H](N)Cc1cccc(NC(=O)N[C@@H]2N=C(c3ccccc3)c3ccccc3N(C)C2=O)c1 [Example 2, N-{(3R)-1,3-Dihydro-1-methyl-2-oxo-5-phenyl-1H-1,4-benzodiazepin-3-yl}-N'-{[3-((2S)-amino-2-methoxycarbonyl)ethylphenyl]-urea}] | > 3000 | 114 | – | – |
| CN1C(=O)[C@H](NC(=O)Nc2ccc3c(c2)CC(N)(C(=O)O)CC3)N=C(c2ccccc2)c2ccccc21 (stereo partly drawn) [Example 17, N-{(3R)-1,3-Dihydro-1-methyl-2-oxo-5-phenyl-1H-1,4-benzodiazepin-3-yl}-N'-{[7-(2-(R,S)amino-1,2,3,4-tetrahydro-2-naphthoic acid)]-urea}] | > 3000 | 28.4 | – | – |
| COC(=O)C1(N)CCc2cc(NC(=O)N[C@@H]3N=C(c4ccccc4)c4ccccc4N(C)C3=O)ccc2C1 (some centres unmarked) [Example 19] | > 3000 | > 3000 | – | – |
| COC(=O)[C@@H](N)Cc1cccc(NC(=O)N[C@@H]2N=C(C3CCCCC3)c3ccccc3N(C)C2=O)c1 [Example 5, N-{(3R)-1,3-Dihydro-1-methyl-2-oxo-5-cyclohexyl-1H-1,4-benzodiazepin-3-yl}-N'-{[3-((2S)-amino-2-methoxycarbonyl)ethylphenyl]-urea}] | – | 9.2 | 924 | – |
| COC(=O)C1(NC(=O)OC(C)(C)C)CCc2c(cccc2NC(=O)N[C@@H]2N=C(c3ccccc3)c3ccccc3N(C)C2=O)C1 (stereo partly drawn) [Example 21, N-{(3R)-1,3-Dihydro-1-methyl-2-oxo-5-phenyl-1H-1,4-benzodiazepin-3-yl}-N'-{[5-(methyl-2-(R,S)-tert-butyloxycarbonylamino-1,2,3,4-tetrahydro-2-naphthoate)]-urea}] | – | 1690 | – | > 3000 |
| COC(=O)C1(N)CCc2c(cccc2NC(=O)N[C@@H]2N=C(c3ccccc3)c3ccccc3N(C)C2=O)C1 (stereo partly drawn) [Example 22, N-{(3R)-1,3-Dihydro-1-methyl-2-oxo-5-phenyl-1H-1,4-benzodiazepin-3-yl}-N'-{[5-(methyl-2-(R,S)-amino-1,2,3,4-tetrahydro-2-naphthoate)]-urea}] | > 3000 | 2160 | – | – |
| CN1C(=O)[C@H](NC(=O)Nc2cccc(C[C@H](N)C(=O)O)c2)N=C(c2ccccc2)c2ccccc21 [Example 3, N-{(3R)-1,3-Dihydro-1-methyl-2-oxo-5-phenyl-1H-1,4-benzodiazepin-3-yl}-N'-{[3-((2S)-amino-2-carboxy)ethylphenyl]-urea}] | – | 61.3 | – | > 3000 |
| COC(=O)[C@@H](NC(=O)OC(C)(C)C)c1cccc(NC(=O)N[C@@H]2N=C(c3ccccc3)c3ccccc3N(C)C2=O)c1 [Example 7, N-{(3R)-1,3-Dihydro-1-methyl-2-oxo-5-phenyl-1H-1,4-benzodiazepin-3-yl}-N'-{[3-((1S)-tert-butyloxycarbonylamino-1-methoxycarbonyl)methylphenyl]-urea}] | > 3000 | 1980 | – | – |
| COC(=O)CC(NC(=O)OC(C)(C)C)c1cccc(NC(=O)N[C@@H]2N=C(c3ccccc3)c3ccccc3N(C)C2=O)c1 (stereo partly drawn) [Example 11, N-{(3R)-1,3-Dihydro-1-methyl-2-oxo-5-phenyl-1 H-1,4-benzodiazepin-3-yl}-N'-{[3-((1R,S)-tert-butyloxycarbonylamino-2-methoxycarbonyl)ethylphenyl]-urea}] | > 3000 | 386 | – | – |
| CN1C(=O)[C@H](NC(=O)Nc2ccc3c(c2)CCC(N)(C(=O)O)C3)N=C(c2ccccc2)c2ccccc21 (stereo partly drawn) [Example 20, N-{(3R)-1,3-Dihydro-1-methyl-2-oxo-5-phenyl-1H-1,4-benzodiazepin-3-yl}-N'-{[6-(2-(R,S)-amino-1,2,3,4-tetrahydro-2-naphthoic acid)]-urea}] | > 3000 | 3520 | – | – |
| COC(=O)C1(NC(=O)OC(C)(C)C)CCc2cccc(NC(=O)N[C@@H]3N=C(c4ccccc4)c4ccccc4N(C)C3=O)c2C1 (stereo partly drawn) [Example 14, N-{(3R)-1,3-Dihydro-1-methyl-2-oxo-5-phenyl-1H-1,4-benzodiazepin-3-yl}-N'-{[8-(methyl-2(R,S)-tert-butyloxycarbonylamino-1,2,3,4-tetrahydro-2-naphthoate)]-urea}] | – | 647 | – | > 3000 |
| COC(=O)CC(N)c1cccc(NC(=O)N[C@@H]2N=C(c3ccccc3)c3ccccc3N(C)C2=O)c1 (stereo partly drawn) [Example 12, N-{(3R)-1,3-Dihydro-1-methyl-2-oxo-5-phenyl-1H-1,4-benzodiazepin-3-yl}-N,- {[3-((1R,S)-amino-2-methoxycarbonyl)ethylphenyl]-urea}] | – | > 3000 | – | – |
| CN1C(=O)[C@H](NC(=O)Nc2cccc([C@H](N)C(=O)O)c2)N=C(c2ccccc2)c2ccccc21 [Example 9, N-{(3R)-1,3-Dihydro-1-methyl-2-oxo-5-phenyl-1H-1,4-benzodiazepin-3-yl}-N'-{[3-((1S)-amino-1-carboxy)methylphenyl]-urea}] | > 3000 | 1330 | – | – |
| COC(=O)C1(N)CCc2ccc(NC(=O)N[C@@H]3N=C(c4ccccc4)c4ccccc4N(C)C3=O)cc2C1 (stereo partly drawn) [Example 16, N-{(3R)-1,3-Dihydro-1-methyl-2-oxo-5-phenyl-1H-1,4-benzodiazepin-3-yl}-N'-{[7-(methyl-2-(R,S)-amino-1,2,3,4-tetrahydro-2-naphthoate)]-urea}] | > 3000 | 148 | – | – |
| COC(=O)C1(NC(=O)OC(C)(C)C)CCc2cc(NC(=O)N[C@@H]3N=C(c4ccccc4)c4ccccc4N(C)C3=O)ccc2C1 (stereo partly drawn) [Example 18, N-{(3R)-1,3-Dihydro-1-methyl-2-oxo-5-phenyl-1H-1,4-benzodiazepin-3-yl}-N'-{[6-(methyl-2-(R,S)-tert-butyloxycarbonylamino-1,2,3,4-tetrahydro-2-naphthoate)]-urea}] | – | > 3000 | – | – |
